Results taken from ChEMBL document CHEMBL1154906, “Additional insights on the bastadins: isolation of analogues from the sponge Ianthella cf. reticulata and exploration of the oxime configurations” (J Nat Prod, 2010).
Calls of active or inactive are those of the source. The calls are words filed in the database; no cut-off is given here.

Assays:
[1] = system: Trypanosoma brucei brucei; test: Antitrypanosomal activity against Trypanosoma brucei brucei 221 after 48 hrs by ATP-bioluminescence assay; assay type: functional, organism-based; conditions: for IC50: Trypanosoma brucei, 221, 48 h
HCT-116 = test: Cytotoxicity against human HCT116 cells after 7 days by methylene blue staining; assay type: functional, cell-based

SMILES: O=C1NCCc2ccc(c(Br)c2)Oc2cc(cc(Br)c2O)CCNC(=O)/C(=N/O)Cc2cc(Br)c(O)c(c2)Oc2c(Br)cc(cc2Br)C/C1=N\O [BASTADIN 19]
- IC50 [1]: 1.31 µM
- Activity (HCT-116): inactive

SMILES: O=C1NCCc2cc(Br)c(O)c(c2)Oc2ccc(cc2Br)[C@H](O)CNC(=O)/C(=N/O)Cc2cc(Br)c(O)c(c2)Oc2c(Br)cc(cc2Br)C/C1=N\O
- Activity [1]: inactive

SMILES: O=C1NCCc2ccc(c(Br)c2)Oc2cc(ccc2O)CCNC(=O)/C(=N/O)Cc2cc(Br)c(O)c(c2)Oc2c(Br)cc(cc2Br)C/C1=N\O [BASTADIN 13]
- IC50 [1]: 1.77 µM

SMILES: O=C1NCCc2cc(Br)c(O)c(c2)Oc2ccc(cc2Br)CCNC(=O)/C(=N\O)Cc2cc(Br)c(O)c(c2)Oc2c(Br)cc(cc2Br)C/C1=N/O
- Activity [1]: inactive
- Activity (HCT-116): inactive

SMILES: O=C(NCCc1ccc(O)c(Br)c1)/C(Cc1cc(Br)c2c(c1)-c1cc(C/C(=N\O)C(=O)NCCc3ccc(O)c(Br)c3)cc(Br)c1OCO2)=N\O
- Activity (HCT-116): inactive

SMILES: O=C1NCCc2cc(Br)c(O)c(c2)Oc2ccc(cc2)CCNC(=O)/C(=N/O)Cc2cc(Br)c(O)c(c2)Oc2c(Br)cc(cc2Br)C/C1=N\O
- Activity [1]: inactive

SMILES: O=C(NCCc1ccc(O)c(Br)c1)/C(Cc1cc(Br)c(O)c(Oc2c(Br)cc(C/C(=N\O)C(=O)NCCc3ccc(O)c(Br)c3)cc2Br)c1)=N\O
- Activity [1]: inactive

SMILES: O=C(NCCc1ccc(O)c(Br)c1)/C(Cc1cc(Br)c(O)c(-c2cc(C/C(=N/O)C(=O)NCCc3ccc(O)c(Br)c3)cc(Br)c2O)c1)=N\O
- Activity (HCT-116): inactive

SMILES: O=C1N/C=C/c2ccc(c(Br)c2)Oc2cc(cc(Br)c2O)CCNC(=O)/C(=N/O)Cc2ccc(c(Br)c2)Oc2cc(cc(Br)c2O)C/C1=N\O
- Activity [1]: inactive

SMILES: O=C1NCCc2ccc(c(Br)c2)Oc2cc(cc(Br)c2O)CCNC(=O)/C(=N/O)Cc2cc(Br)c(O)c(c2)Oc2c(Br)cc(cc2Br)C/C1=N/O
- Activity (HCT-116): inactive

SMILES: O=C1N/C=C/c2ccc(c(Br)c2)Oc2cc(cc(Br)c2O)CCNC(=O)/C(=N/O)Cc2cc(Br)c(c(Br)c2)Oc2cc(cc(Br)c2O)C/C1=N\O [BASTADIN 4]
- Activity [1]: inactive
- IC50 (HCT-116; HCT-116, 168 h): 1.28 µM

SMILES: O=C1NCCc2cc(Br)c(O)c(c2)Oc2c(Br)cc(cc2Br)CCNC(=O)/C(=N/O)Cc2cc(Br)c(O)c(c2)Oc2c(Br)cc(cc2Br)C/C1=N\O
- Activity [1]: inactive
- Activity (HCT-116): inactive
